From US9269550B2, “Mass spectrometric methods for quantifying NPY 1-36 and NPY 3-36” (Georgetown University, priority 2010, dated 2016)

What was measured:
[1] = tested on: SK-N-MC cells; test: Cell viability in SK-N-MC cells; format: cell-based, human
[2] = biological target: T1, Y1Rs (Homo sapiens, UniProt P25929); settings: cited from earlier work
T1 sequence (P25929 1-384): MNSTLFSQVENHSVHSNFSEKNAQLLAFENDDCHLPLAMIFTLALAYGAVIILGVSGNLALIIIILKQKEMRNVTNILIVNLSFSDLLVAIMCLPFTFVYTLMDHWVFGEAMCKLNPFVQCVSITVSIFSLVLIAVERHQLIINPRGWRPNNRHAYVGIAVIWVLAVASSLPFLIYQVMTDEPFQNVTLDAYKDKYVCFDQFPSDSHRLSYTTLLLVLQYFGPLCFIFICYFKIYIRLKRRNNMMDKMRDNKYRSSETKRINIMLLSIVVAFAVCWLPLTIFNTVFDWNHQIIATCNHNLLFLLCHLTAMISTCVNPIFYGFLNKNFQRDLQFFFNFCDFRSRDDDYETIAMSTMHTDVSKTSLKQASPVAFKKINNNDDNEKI

Substance	decrease in cell viability [1]	activity at Y1Rs [2]
NPY 3-36: 34-amino acid peptide fragment formed by dipeptidyl peptidase IV (DPPIV) cleavage of NPY 1-36	not	inactive
NPY 1-36: 36-amino acid peptide neurotransmitter found in the brain and autonomic nervous system	decrease in cell viability was achieved	
